pEC50: −log10 of the molar value. Values joined by “and” are separate entries in the source; they are usually repeats but may differ in a detail not shown here. Equal values may be shown once. “Also recorded” adds a separate entry of the source. Read-outs that look alike come from different tables or passages of the source.

Consider four molecules from PMC7687008, “Small molecule inhibitors provide insights into the relevance of LAT1 and LAT2 in materno‐foetal amino acid transport” (Journal of Cellular and Molecular Medicine, 2020).

Data set [1] has as its target LAT1/LAT2 (System L transporters) in BeWo-CTB cells (Homo sapiens, UniProt Q01650). Kind of data set: Leucine uptake inhibition in BeWo-CTB (undifferentiated BeWo cells), Na+-free buffer, 3H-leucine. The data set is classed as cell-based. The following applies: for pEC50: 3 min.
Data set [2] relates to LAT1/LAT2 (System L transporters) in BeWo-STB cells. The experiment in a line: Leucine uptake inhibition in BeWo-STB (forskolin-differentiated BeWo cells), Na+-free buffer, 3H-leucine. The data set is classed as cell-based, human. The following applies: for pEC50 / inhibition of leucine uptake: BeWo-STB; for pEC50: 3 min; for residual leucine uptake: 10 µM; for inhibition of leucine uptake: 10 µmol/L inhibitor. Here is the method: (§1) BeWo cells (clone b30) were cultured in DMEM containing 1.0 g/L glucose (DMEM‐lowGlucose; Gibco). […] Cells were cultured in DMEM‐lowGlucose at 37°C with 5% CO2 atmosphere for 7‐14 days.
JPH203, JG336 and JX009 were synthesized following the routes described in the European Patent Application EP 2‐959‐918‐A1, 2014. Compounds were obtained as hydrochlorides, dissolved in dimethyl sulfoxide (DMSO, Merck, Darmstadt, Germany) and applied in the concentration range from 0.001 to 31.6 μmol/L. JPH203 has been characterized as highly LAT1‐specific; JX009 is described as LAT1 and LAT2‐specific inhibitor. ^37 JG336 is a derivate of JPH203 with an additional methoxy group at the peripheral phenyl moiety residue. Compound structures are depicted in Figure 4. The ^1H‐NNMR and ^13C‐NMR spectra data of the compounds were in agreement with the expected structures and are included in the Supporting Information.
FIGURE 4 Inhibition of leucine uptake in BeWo cells using small molecule inhibitors with different specificities. Dose‐response experiments in BeWo‐cytotrophoblasts (BeWo‐CTB) and forskolin‐stimulated BeWo‐syncytiotrophoblasts (BeWo‐STB) for the established LAT1‐specific inhibitor JPH203 (A) and for the alternative compound JG336 which carries an additional methoxy group as marked in the dashed red box (B). […] BCH is a widely accepted inhibitor blocking all System L mediated transport. […] (A‐C) The new inhibitors JG336 and JX009 as well as JPH203 reached maximal inhibition (first concentration without significant difference to the bottom value) at a concentration of 10 µmol/L, JG336 required 1 µmol/L for maximal inhibition in BeWo‐CTB. BCH reached maximal inhibition at 1 mmol/L in both differentiation stages. […] Dose‐response kinetics were calculated using the nonlinear four‐parameter model [Y = Bottom + (Top − Bottom)/(1 + 10^((LogEC50‐X)*HillSlope))] and ordinary fit with GraphPad Prism software.

In data set [3] the target is SLC7 transporters in HT-29 cells (Homo sapiens, UniProt Q01650). The experiment in a line: Leucine uptake inhibition in HT-29 cells. The following applies: for pEC50: EC50 of leucine uptake inhibition, Na+-free Hanks buffer.
In a further data set the test system is Caco-2 cells. Also noted: method as in PMID 21914964. The settings on record: cited from earlier work.
In data set [4] the test system is LAT1/LAT2 (System L transporters) in polarized BeWo monolayer. Kind of data set: Leucine transfer across polarized BeWo monolayer (Transwell), apical to basal, and intracellular leucine content. It counts as cell-based, human. Here is the method: as §1
Before starting the transfer experiment, the formation of a tight trophoblast monolayer in BeWo cells was monitored by measuring transepithelial electrical resistance (TEER, [Ω*cm^2]) and passive diffusion as reported previously. ^38 TEER and cellular capacitance (Ccl, [µF/cm^2]) were measured every 30 minutes and analysed using the cellZscope system (nanoAnalytics, Münster, Germany) according to the manufacturer's instructions. The apparent permeability coefficient (Papp, [cm/s]) was calculated by measuring the rates of passive transfer of the paracellular pathway marker Lucifer yellow (LY) as previously described. ^39 BeWo monolayers with verified tightness were selected after 7 days of culturing on Transwell® membranes and randomly assigned to leucine transfer time courses and inhibition experiments. […] Radioactivity was quantified using Tri‐carb 2100TR Liquid Scintillation Counter (PerkinElmer).
FIGURE 5 Relevance of LAT1 and System L inhibition in leucine transfer across the placental barrier in vitro. A, Leucine transfer across a tight BeWo monolayer was measured from the apical (ie upper compartment) towards the basal (ie lower compartment) side during 6 h using the Transwell® system. […]

Setting [5] is: 167 µmol/L leucine, Na+-free Hank's buffer, read-out: EC50 of leucine uptake inhibition.
The mark [6] stands for this setting: 167.2 µmol/L leucine, four-parameter fit, read-out: EC50 (best-fit value in Figure 4).
Setting [7] is: BeWo-CTB, 167 µmol/L leucine, Na+-free Hank's buffer, read-out: EC50 of leucine uptake inhibition.
Where [8] appears, read: BeWo-CTB, 167.2 µmol/L leucine, four-parameter fit, read-out: EC50 (best-fit value in Figure 4).

Sequence of SLC7 transporters in HT-29 cells (Q01650 whole entry): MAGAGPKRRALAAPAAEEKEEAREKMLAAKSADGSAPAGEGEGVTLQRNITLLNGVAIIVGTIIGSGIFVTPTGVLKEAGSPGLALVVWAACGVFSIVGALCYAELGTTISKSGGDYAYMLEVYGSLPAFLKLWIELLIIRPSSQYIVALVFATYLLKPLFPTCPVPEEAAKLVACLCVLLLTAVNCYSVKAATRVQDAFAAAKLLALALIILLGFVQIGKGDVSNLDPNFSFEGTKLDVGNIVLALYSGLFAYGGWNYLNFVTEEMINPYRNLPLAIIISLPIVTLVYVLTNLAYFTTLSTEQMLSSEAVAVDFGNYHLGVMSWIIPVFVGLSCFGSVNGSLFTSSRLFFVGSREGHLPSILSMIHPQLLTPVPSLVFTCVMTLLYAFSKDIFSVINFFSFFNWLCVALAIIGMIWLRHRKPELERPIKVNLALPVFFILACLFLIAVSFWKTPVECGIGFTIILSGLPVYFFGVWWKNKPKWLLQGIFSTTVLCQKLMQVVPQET
Sequence of SLC7 transporters in HT-29 cells (P08195 102-630 partner): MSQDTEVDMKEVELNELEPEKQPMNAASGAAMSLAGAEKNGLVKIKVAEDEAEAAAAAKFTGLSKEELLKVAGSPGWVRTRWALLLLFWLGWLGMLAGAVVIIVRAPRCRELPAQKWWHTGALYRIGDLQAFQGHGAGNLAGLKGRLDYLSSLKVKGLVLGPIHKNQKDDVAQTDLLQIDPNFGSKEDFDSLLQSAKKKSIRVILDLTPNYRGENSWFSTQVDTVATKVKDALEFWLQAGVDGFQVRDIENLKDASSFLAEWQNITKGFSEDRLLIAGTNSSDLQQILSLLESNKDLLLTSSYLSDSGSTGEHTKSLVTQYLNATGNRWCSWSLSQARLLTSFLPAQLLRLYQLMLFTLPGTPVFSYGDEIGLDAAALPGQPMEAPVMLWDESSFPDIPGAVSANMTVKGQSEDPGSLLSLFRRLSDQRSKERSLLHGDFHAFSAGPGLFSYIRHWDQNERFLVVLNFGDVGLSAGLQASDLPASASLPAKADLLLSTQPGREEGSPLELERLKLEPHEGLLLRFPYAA
Sequence of LAT1/LAT2 (System L transporters) in BeWo-CTB cells (Q01650 whole entry): as the sequence (Q01650 whole entry) above
Sequence of LAT1/LAT2 (System L transporters) in BeWo-CTB cells (P08195 103-630 partner): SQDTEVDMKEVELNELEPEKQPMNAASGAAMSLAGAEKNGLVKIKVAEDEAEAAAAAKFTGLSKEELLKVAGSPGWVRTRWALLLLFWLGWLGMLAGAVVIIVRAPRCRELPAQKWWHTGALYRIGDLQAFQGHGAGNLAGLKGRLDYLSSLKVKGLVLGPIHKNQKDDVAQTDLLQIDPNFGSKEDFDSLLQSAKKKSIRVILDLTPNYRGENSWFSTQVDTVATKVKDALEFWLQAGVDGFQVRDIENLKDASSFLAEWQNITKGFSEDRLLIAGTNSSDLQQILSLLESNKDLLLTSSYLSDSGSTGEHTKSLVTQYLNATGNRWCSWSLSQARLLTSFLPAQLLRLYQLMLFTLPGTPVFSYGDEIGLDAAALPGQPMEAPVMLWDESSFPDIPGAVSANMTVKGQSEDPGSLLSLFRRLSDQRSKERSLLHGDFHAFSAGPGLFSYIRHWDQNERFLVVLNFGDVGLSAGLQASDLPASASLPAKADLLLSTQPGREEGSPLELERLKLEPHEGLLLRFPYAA

The pEC50 is the EC50 on a negative log10 scale, so that one unit is a factor of ten. Turning to `NC1(C(=O)O)CC2CCC1C2` (stereo not drawn) [BCH, 2‐amino‐2‐norbornane‐carboxylic acid], the “Bottom of dose-response fit (leucine uptake at maximal inhibition)” value worked out at 0 nmol/mg protein in data set [1] (BeWo-CTB, four-parameter fit) and 0 nmol/mg protein in data set [2]. The “Top of dose-response fit (leucine uptake)” value (shortened to “Top of dose-response fit”) is reported as 5.305 nmol/mg protein in data set [1] (BeWo-CTB, four-parameter fit) and 9.770 nmol/mg protein in data set [2]. In addition, the pEC50 is 3.15 in data set [1] (read-out: EC50 (best-fit value in Figure 4), BeWo-CTB, 167.2 µmol/L leucine, four-parameter fit); 3.15 in data set [1] (read-out: EC50 of leucine uptake inhibition, BeWo-CTB, 167 µmol/L leucine, Na+-free Hank's buffer); 3.35 in data set [2] (setting [5]); 3.36 in data set [2] (setting [6]). For the same molecule, the “times less effective than JX009” value in data set [2] is more than 100 times.
Turning to `COc1ccc(-c2nc3cc(N)cc(COc4c(Cl)cc(C[C@H](N)C(=O)O)cc4Cl)c3o2)cc1` [JG336], the “concentration required for maximal inhibition” value in data set [1] (BeWo-CTB) is 1 µmol/L. The pEC50 was 6.10 in data set [1] (setting [7]); 6.10 in data set [1] (setting [8]); 5.70 in data set [2] (setting [5]); 5.70 in data set [2] (setting [6]); 6.68 in data set [3] (30µM leucine); 6.14 in data set [3] (167µM leucine, 3min). The “Bottom of dose-response fit (leucine uptake at maximal inhibition)” value in data set [1] (BeWo-CTB, four-parameter fit) was 0.622 nmol/mg protein; in data set [2], 3.212 nmol/mg protein. Also, the “Top of dose-response fit” value in data set [1] (BeWo-CTB, four-parameter fit) is given as 2.673 nmol/mg protein; in data set [2], 8.534 nmol/mg protein. In addition, the “concentration reaching maximal inhibition (first concentration without significant difference to bottom value)” value in data set [2] stood at 10 µmol/L. In data set [2], the residual leucine uptake is recorded as 3.2 nmol/mg protein. Moreover, the “inhibition of leucine uptake” value in data set [2] is 62.4% and 62%. In data set [3] (167µM leucine), the “extent of leucine uptake inhibition” value is on record as “complete leucine uptake inhibition”.
In the case of `Nc1cc(COc2c(Cl)cc(C[C@H](N)C(=O)O)cc2Cl)c2oc(-c3ccccc3)nc2c1` [JPH203], the pEC50 was 5.51 in data set [1] (setting [7]); 5.51 in data set [1] (setting [8]); 5.59 in data set [2] (setting [5]); 6.82 in data set [3] (30µM leucine); 5.66 in data set [3] (167µM leucine, 3min). Further, the “Bottom of dose-response fit (leucine uptake at maximal inhibition)” value in data set [1] (BeWo-CTB, four-parameter fit) was determined as 0.716 nmol/mg protein; in data set [2], 3.758 nmol/mg protein. Moreover, the “Top of dose-response fit” value in data set [1] (BeWo-CTB, four-parameter fit) stood at 3.888 nmol/mg protein; in data set [2] it was 8.593 nmol/mg protein. Further, the “concentration reaching maximal inhibition (first concentration without significant difference to bottom value)” value in data set [2] is on record as 10 µmol/L. The molecule further yielded a residual leucine uptake in data set [2] of 3.8 nmol/mg protein. In addition, the “inhibition of leucine uptake” value in data set [2] is 56.3% and 56%. Besides, in the data set with Caco-2 cells, the “permeability (membrane and cell layer)” value is on record as “has been shown”. Moreover, in data set [3] (167µM leucine), the “extent of leucine uptake inhibition” value is “complete leucine uptake inhibition”.
Take `CN(C)c1ccc(-c2cccc(Oc3cccc(C[C@H](N)C(=O)O)c3)c2)cn1` [JX009]: the “inhibition of leucine uptake” value in data set [1] (BeWo-CTB (regardless of differentiation stage)) and in data set [2] was 87% each time. For the same molecule, the negative-log EC50 (pEC50) in data set [1] (setting [7]) was 5.41 and > 5.40; in data set [1] (setting [8]), 5.41; in data set [2] (setting [5]) it was 5.63 and 5.64; in data set [2] (setting [6]), 5.63; in data set [3] (30µM leucine), 6.22; in data set [3] (167µM leucine, 3min), 5.42. In addition, the “Bottom of dose-response fit (leucine uptake at maximal inhibition)” value stood at 0.774 nmol/mg protein in data set [1] (BeWo-CTB, four-parameter fit) and 1.093 nmol/mg protein in data set [2]. Moreover, the “Top of dose-response fit” value is given as 4.066 nmol/mg protein in data set [1] (BeWo-CTB, four-parameter fit) and 8.426 nmol/mg protein in data set [2]. Also, in data set [2], the “concentration reaching maximal inhibition (first concentration without significant difference to bottom value)” value was 10 µmol/L. The “decrease of intracellular 3H-leucine content of BeWo monolayer” value in data set [4] (10 µM) was “no effect”; in data set [4] (10 µmol/L, end of transfer experiment (6 hours)), “intracellular leucine retention; also recorded: unchanged”. Further, the “extent of leucine uptake inhibition” value in data set [3] (167µM leucine) is “complete leucine uptake inhibition”.
